Here are results for 24 compounds from patent publication US5939419A, “2-benzyl-polycyclic guanine derivatives and process for preparing them” (Schering-Plough Corporation, priority 1995, dated 1999).

Bounds are passed on as bounds.

Broadly, the IC50 is the point on the concentration scale where inhibition reaches its midpoint.

The first test concerns spontaneously hypertensive rats (SHR). As to the kind of experiment: Antihypertensive activity in conscious spontaneously hypertensive rats (SHR), oral. Format: in vivo, rat.
Conditions: not given
The text has this: The present compounds are useful in inhibiting the phosphodiesterase enzymes. These phosphodiesterase enzymes are known to hydrolyze cGMP in smooth muscle. High levels of cGMP are associated with the relaxation of vascular smooth muscle, with a consequent subsequent reduction in blood pressure. Thus, it is believed that by inhibiting these phosphodiesterase enzymes, cGMP levels in muscle will be either maintained or increased, with a subsequent reduction in blood pressure. In vivo antihypertensive activity is determined orally in spontaneously hypertensive rats (SHR).
Antihypertensive activity in rats
The ability of the compounds of the present invention to lower blood pressure can be assessed in vivo in conscious spontaneously hypertensive rats (SHR). SHR males are purchased from Taconic Farms, Germantown, N.Y. and are approximately 16-18 weeks old when anesthetized with ether. The caudal (ventral tail) artery is cannulated with polyethylene tubing (PE50) and blood pressure and heart rate are recorded as described by Baum, T. et. al, J. Cardiovasc. Pharmacol. Vol 5, pp. 655-667, (1983). Rats are placed into plastic cylindrical cages where they rapidly recover consciousness. Blood pressure and heart rate are allowed to stabilize for approximately 90 minutes prior to compound administration. […] Activity is expressed as the fall in mean blood pressure (MBP) in millimeters of mercury (mm Hg). […]
Turning to `CN1C(=O)c2[nH]cnc2N2C1=N[C@@H]1CCC[C@@H]12` (relative stereo) [Compound B, cis-5,6a,7,8,9,9a-hexahydro-5-methylcyclopenta-[4,5]imidazo[2,1-b]-purin-4(3H)-one, reference compound], the “SHR: fall in MBP at 25 mpk” value was determined as 32 mmHg.

`CN1C(=O)c2[nH]c(Cc3ccccc3)nc2N2C1=N[C@@H]1CCC[C@@H]12` (relative stereo) [Compound A, reference compound]: the “SHR: fall in MBP at 25 mpk” value was 6 mmHg.

In a further test the target is T1, calcium-calmodulin dependent phosphodiesterase (CaM-PDE) (Bos taurus, UniProt P14100).
T1 construct: from tissue; host or cells: bovine aorta
The test can be described thus: Phosphodiesterase inhibition in vitro, calcium-calmodulin dependent phosphodiesterase (CaM-PDE), 3H-cGMP substrate. The class given is biochemical. The conditions noted are these: CaM-PDE from bovine aorta; 1 μM 3H-cGMP; pH 7.5; 25 minutes at room temperature.
With `CN1C(=O)c2[nH]c(Cc3ccc(N4CCOCC4)cc3)nc2N2C1=N[C@@H]1CCC[C@@H]12` [Example 3C], the IC50 worked out at 200 nM.

With `CN1C(=O)c2[nH]c(Cc3ccc(OC(F)(F)F)cc3)nc2N2C1=N[C@@H]1CCC[C@@H]12` [Example 3B], the IC50 worked out at 600 nM.

Consider `CN1C(=O)c2[nH]c(Cc3ccccc3)nc2N2CC3(CCCC3)N=C12` [Example 8], for which the IC50 came to 100 nM.

Consider `CN1C(=O)c2[nH]cnc2N2C1=N[C@@H]1CCC[C@@H]12` (relative stereo) [Compound B, cis-5,6a,7,8,9,9a-hexahydro-5-methylcyclopenta-[4,5]imidazo[2,1-b]-purin-4(3H)-one, reference compound], for which the IC50 was 33000 nM.

As to `CN1C(=O)c2[nH]c(Cc3ccc(-c4ccccc4)cc3)nc2N2C1=N[C@@H]1CCC[C@@H]12` [Example 3H], the IC50 is < 100 nM.

Consider `CN1C(=O)c2[nH]c(Cc3ccccc3)nc2N2C1=N[C@@H]1CCC[C@@H]12` [Example 1], for which the IC50 is 100 nM.

Regarding `CN1C(=O)c2[nH]c(Cc3ccc4ccccc4c3)nc2N2C1=N[C@@H]1CCC[C@@H]12` [Example 6], the IC50 was 480 nM.

As to `CN1C(=O)c2[nH]c(Cc3ccccc3)nc2N2CC(C)(C)N=C12` [Example 9], the IC50 worked out at 300 nM.

On to `CN1C(=O)c2[nH]c(Cc3ccc4c(c3)OCO4)nc2N2C1=N[C@@H]1CCC[C@@H]12` [Example 3G], for which the IC50 worked out at 300 nM.

`COc1cccc(Cc2nc3c([nH]2)C(=O)N(C)C2=N[C@@H]4CCC[C@@H]4N23)c1` [Example 3E]: the IC50 came to 900 nM.

For `CN1C(=O)c2[nH]c(Cc3ccc(C(F)(F)F)cc3)nc2N2C1=N[C@@H]1COC[C@@H]12` [Example 12], the half-maximal inhibitory concentration (IC50) is 3000 nM.

For `CN1C(=O)c2[nH]c(Cc3ccc(C(F)(F)F)cc3)nc2N2C1=N[C@@H]1CCC[C@@H]12` [Example 1C], the IC50 worked out at 600 nM.

For the compound `CC(C)[C@@H]1CN2C(=N1)N(C)C(=O)c1[nH]c(Cc3ccccc3)nc12` [Example 10], the IC50 stood at 100 nM.

As to `COc1cc(Cc2nc3c([nH]2)C(=O)N(C)C2=N[C@@H]4CCC[C@@H]4N23)cc(OC)c1OC` [Example 2A], the IC50 amounted to 700 nM.

In the case of `CN1C(=O)c2[nH]c(Cc3ccccc3)nc2N2C1=N[C@@H]1CCC[C@@H]12` (relative stereo) [Compound A, reference compound], the concentration for half-maximal inhibition (IC50) was 200 nM.

On to `CN1C(=O)c2[nH]c(Cc3ccc4c(c3)OCO4)nc2N2C1=NC13CCCC1CCC23` (centres unmarked) [Example 11], for which the IC50 is 200 nM.

On to `CN1C(=O)c2[nH]c(Cc3ccc(N(C)C)cc3)nc2N2C1=N[C@@H]1CCC[C@@H]12` [Example 2], for which the half-inhibitory concentration (IC50) was < 100 nM.

As to `CN1C(=O)c2[nH]c(Cc3cccc(C(F)(F)F)c3)nc2N2C1=N[C@@H]1CCC[C@@H]12` [Example 3F], the IC50 amounted to 800 nM.

For the compound `COc1ccc(Cc2nc3c([nH]2)C(=O)N(C)C2=N[C@@H]4CCC[C@@H]4N23)cc1` [Example 1B], the IC50 amounted to 200 nM.

Take `CN1C(=O)c2[nH]c(Cc3ccc(O)cc3)nc2N2C1=N[C@@H]1CCC[C@@H]12` [Example 3]: the IC50 is < 100 nM.

For `CN1C(=O)c2[nH]c(Cc3ccc(Cl)cc3)nc2N2C1=N[C@@H]1CCC[C@@H]12` [Example 7], the IC50 was determined as 650 nM.

As for `CN1C(=O)c2[nH]c(Cc3ccc(F)cc3)nc2N2C1=N[C@@H]1CCC[C@@H]12` [Example 1A], the IC50 is < 100 nM.

In the case of `Cc1ccc(Cc2nc3c([nH]2)C(=O)N(C)C2=N[C@@H]4CCC[C@@H]4N23)cc1` [Example 3A], the half-maximal inhibitory concentration (IC50) came to 100 nM.

For `COc1ccc(Cc2nc3c([nH]2)C(=O)N(C)C2=N[C@@H]4CCC[C@@H]4N23)cc1OC` [Example 2B], the IC50 stood at 400 nM.
